Series [1] deals with T1, human κ-opioid receptor (OPRK1) (Homo sapiens, UniProt P41145). The series is described as follows: cell-based.
For series [2], the system named is squirrel monkeys. The series is described as follows: Respiratory depression: ventilatory response to hypercapnia (5% CO2 in air). Format: in vivo, squirrel monkeys (Saimiri sciureus). The conditions noted are these: ratio of minute volumes in 5% CO2 and room air, cumulative dosing. Here is the method: Ventilation measures were assessed as described previously. Briefly, squirrel monkeys were acclimated to a customized acrylic chamber (10″ d × 10″ w × 10″ h) that served as a whole-body plethysmograph (EMKA Technologies, Montreal, PQ, Canada). Gas (either air or a 5% CO2 in air mixture) was introduced to and extracted from the chamber at a constant flow rate of 5 L/min. Experimental sessions consisted of 4–6 consecutive 30 min cycles, each comprising a 20 min exposure to air followed by a 10 min exposure to 5% CO2. Drug effects were determined using cumulative dosing procedures, and injections were administered following each exposure to 5% CO2. Respiratory rate and tidal volume (mL/breath) were recorded over 1 min periods and were multiplied to provide minute volumes. Data from the last three minutes of each exposure to air or CO2 were averaged and used for analysis of drug effects on ventilation.
(§1) All statistical analyses and graphic representations were completed with GraphPad Prism version 9.3.0 (GraphPad Software, San Diego, CA, USA) using log transformed values of doses. Group means ± SEM tail withdrawal latencies (in sec) and minute volume ratios are plotted as a function of drug dose. Data were analyzed using One-way ANOVA with significance set at p < 0.05, followed by Dunnett’s multiple comparison test.

Series [3] addresses T1, human κ-opioid receptor (OPRK1). The conditions noted are these: versus EC90 of U50488H; normalized to nor-BNI.
In series [4] the target is T2, human δ-opioid receptor (OPRD1) (Homo sapiens, UniProt P41143). The series is described as follows: Forskolin-induced cAMP accumulation assay, DOR antagonist mode.
Series [5] concerns squirrel monkeys. In words: Antinociception: warm-water tail-withdrawal. It is filed as in vivo, squirrel monkeys (Saimiri sciureus). The conditions noted are these: 52 °C water, cumulative dosing. Here is the method:
Male squirrel monkeys (Saimiri sciureus) were housed in a climate-controlled vivarium with a 12 h light/dark cycle (7 AM–7 PM) in the McLean Hospital Animal Care Facility (licensed by the U.S. Department of Agriculture and compliant with guidelines provided by the Committee on Care and Use of Laboratory Animals of the Institute of Laboratory Animals Resources, Commission on Life Sciences, National Research Council; 2011). Tail withdrawal latencies were assessed as described previously. Briefly, monkeys were seated in customized Plexiglas chairs that allowed their tails to hang freely. Tail withdrawal latencies were measured by immersing the subject’s tail in water held at 35 or 52 °C (temperatures were presented in a randomized order during successive test components). After obtaining a baseline tail withdrawal latency, complete dose response curves were generated in each subject using standard cumulative dosing procedures. Briefly, every 15 min after an injection tail-withdrawal latencies at each temperature were redetermined and subjects were injected with the next dose, such that the total (cumulative) dose was increased by ½ log10 units in each successive cycle. This procedure was repeated until either (a) the tail-withdrawal latency from 52 °C water reached the maximum allowable latency (10 sec), or (b) tail-withdrawal latency no longer increased with increases in dose of the test drug.
as §1

Series [6] has as its target T3, mouse mu opioid receptor (Mus musculus, UniProt P42866).
T3 construct: expressed in transfected cells; host or cells: CHO (mMOR-CHO), membrane homogenates
In words: Competition radioligand binding assay ([3H]naloxone, mMOR-CHO membranes). Particulars: 1.4 nM [3H]naloxone, read-out: [3H]NLX Binding Ki. As for the experimental part: In vitro binding assays were performed using monocloned mouse mu opioid receptor expressing Chinese hamster ovary (CHO) cells (mMOR-CHO). mMOR-CHO cell culture and membrane homogenate preparation were performed as previously described. All assays were duplicated and repeated at least three times.
Competition binding assays were performed as previously described. […] Bound radioactive ligand was isolated by filtration through GF/B glass fiber filters and rinsed three times with ice-cold wash buffer (50 mM Tris-HCl, pH 7.2). Bound radioactivity was determined via liquid scintillation ounting. […] The IC50 values were determined by nonlinear regression analysis using GraphPad Prism 9 (GraphPad Software, San Diego, CA, USA) and converted to Ki values using the Cheng–Prusoff equation.

Series [7] addresses T3, mouse mu opioid receptor. The series is described as follows: [35S]GTPγS functional assay (mMOR-CHO membranes). It is filed as biochemical.
Series [8] has as its target T2, human δ-opioid receptor (OPRD1). In words: Forskolin-induced cAMP accumulation assay, DOR agonist mode.
Series [9] deals with T1, human κ-opioid receptor (OPRK1). In words: cell-based. The source holds these as a separate data set.

“Also recorded” adds a separate entry of the source. Bounds are passed on as bounds.

T1 sequence (P41145 whole entry): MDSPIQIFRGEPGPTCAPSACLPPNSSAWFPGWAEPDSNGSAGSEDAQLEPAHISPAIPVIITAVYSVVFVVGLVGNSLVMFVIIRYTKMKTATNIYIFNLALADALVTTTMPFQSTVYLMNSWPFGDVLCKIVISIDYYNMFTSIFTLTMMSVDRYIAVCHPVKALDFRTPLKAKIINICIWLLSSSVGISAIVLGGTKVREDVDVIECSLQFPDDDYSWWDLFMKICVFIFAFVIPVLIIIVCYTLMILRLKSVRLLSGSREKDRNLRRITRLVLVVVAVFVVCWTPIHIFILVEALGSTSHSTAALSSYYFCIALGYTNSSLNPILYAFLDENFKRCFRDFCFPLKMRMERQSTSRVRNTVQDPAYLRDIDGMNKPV
T2 sequence (P41143 whole entry): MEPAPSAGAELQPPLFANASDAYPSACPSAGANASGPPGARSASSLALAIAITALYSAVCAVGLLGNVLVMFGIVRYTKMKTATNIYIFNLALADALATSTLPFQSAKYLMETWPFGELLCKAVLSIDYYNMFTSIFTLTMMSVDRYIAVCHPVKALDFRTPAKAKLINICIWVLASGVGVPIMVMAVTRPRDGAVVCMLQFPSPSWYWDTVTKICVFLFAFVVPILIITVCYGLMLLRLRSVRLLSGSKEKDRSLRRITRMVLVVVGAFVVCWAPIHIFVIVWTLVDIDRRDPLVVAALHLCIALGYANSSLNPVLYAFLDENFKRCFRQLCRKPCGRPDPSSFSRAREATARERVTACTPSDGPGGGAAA
T3 sequence (P42866 whole entry): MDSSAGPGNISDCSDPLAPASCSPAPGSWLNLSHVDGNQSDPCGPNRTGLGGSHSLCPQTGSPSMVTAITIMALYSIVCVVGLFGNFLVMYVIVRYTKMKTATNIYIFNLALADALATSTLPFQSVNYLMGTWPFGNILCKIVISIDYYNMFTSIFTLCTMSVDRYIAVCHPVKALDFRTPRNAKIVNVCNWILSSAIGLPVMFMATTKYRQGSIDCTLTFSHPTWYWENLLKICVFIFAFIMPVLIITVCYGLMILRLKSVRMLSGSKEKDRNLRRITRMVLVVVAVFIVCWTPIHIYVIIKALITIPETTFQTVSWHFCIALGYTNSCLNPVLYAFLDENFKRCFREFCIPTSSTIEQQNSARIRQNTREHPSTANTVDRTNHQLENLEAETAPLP

As to `C/C=C\[C@H]1[C@H]2CCC[C@]1(c1cccc(O)c1)CCN2CCc1ccccc1` [Compound 17, 3-((1R,5S,9R)-2-Phenethyl-9-((Z)-prop-1-en-1-yl)-2-azabicyclo [3.3.1]nonan-5-yl)phenol], the EC50 is above 10000 nM in [1]; 9.64 ± 1.7 nM at mouse mu opioid receptor [7] (mMOR-CHO membranes, read-out: GTPgS EC50); above 10000 nM in series [8]. In the series on squirrel monkeys [2], the “Effect on ventilatory ratio (respiratory depression)” value is on record as “without significantly altering ventilation; also recorded: limited effects on ventilatory ratio”. For the same molecule, the “KOR Antagonist %Imax ± SEM” value in series [3] is recorded as 111.6 ± 7.9%. In addition, the IC50 is 113 ± 19.8 nM in series [4] and 35 ± 9.7 nM in series [9]. Further, in series [4] (versus EC50 of SNC80, normalized to naltrexone), the “DOR Antagonist %Imax ± SEM” value was found to be 143.3 ± 11.9%. Besides, in the series on squirrel monkeys [5], the “Effect on tail withdrawal latency (antinociception)” value was “increased tail withdrawal latency; also recorded: consistent and significant antinociceptive effects”. Moreover, at mouse mu opioid receptor [6], the Ki stood at 1.83 ± 0.24 nM. Further, the Emax at mouse mu opioid receptor [7] (read-out: GTPgS % Emax of (DAMGO)) worked out at 18 ± 1.45%.

(Values after article PMC9570967 (Molecules, 2022).)
